52 compounds from ChEMBL document CHEMBL5308504, “Tm Shift (DSF) assay results for EUbOPEN Chemogenomics Library” (2023) can be followed below.

In one assay the target is T1, Peregrin (Homo sapiens) (UniProt P55201).
T1 sequence (whole entry): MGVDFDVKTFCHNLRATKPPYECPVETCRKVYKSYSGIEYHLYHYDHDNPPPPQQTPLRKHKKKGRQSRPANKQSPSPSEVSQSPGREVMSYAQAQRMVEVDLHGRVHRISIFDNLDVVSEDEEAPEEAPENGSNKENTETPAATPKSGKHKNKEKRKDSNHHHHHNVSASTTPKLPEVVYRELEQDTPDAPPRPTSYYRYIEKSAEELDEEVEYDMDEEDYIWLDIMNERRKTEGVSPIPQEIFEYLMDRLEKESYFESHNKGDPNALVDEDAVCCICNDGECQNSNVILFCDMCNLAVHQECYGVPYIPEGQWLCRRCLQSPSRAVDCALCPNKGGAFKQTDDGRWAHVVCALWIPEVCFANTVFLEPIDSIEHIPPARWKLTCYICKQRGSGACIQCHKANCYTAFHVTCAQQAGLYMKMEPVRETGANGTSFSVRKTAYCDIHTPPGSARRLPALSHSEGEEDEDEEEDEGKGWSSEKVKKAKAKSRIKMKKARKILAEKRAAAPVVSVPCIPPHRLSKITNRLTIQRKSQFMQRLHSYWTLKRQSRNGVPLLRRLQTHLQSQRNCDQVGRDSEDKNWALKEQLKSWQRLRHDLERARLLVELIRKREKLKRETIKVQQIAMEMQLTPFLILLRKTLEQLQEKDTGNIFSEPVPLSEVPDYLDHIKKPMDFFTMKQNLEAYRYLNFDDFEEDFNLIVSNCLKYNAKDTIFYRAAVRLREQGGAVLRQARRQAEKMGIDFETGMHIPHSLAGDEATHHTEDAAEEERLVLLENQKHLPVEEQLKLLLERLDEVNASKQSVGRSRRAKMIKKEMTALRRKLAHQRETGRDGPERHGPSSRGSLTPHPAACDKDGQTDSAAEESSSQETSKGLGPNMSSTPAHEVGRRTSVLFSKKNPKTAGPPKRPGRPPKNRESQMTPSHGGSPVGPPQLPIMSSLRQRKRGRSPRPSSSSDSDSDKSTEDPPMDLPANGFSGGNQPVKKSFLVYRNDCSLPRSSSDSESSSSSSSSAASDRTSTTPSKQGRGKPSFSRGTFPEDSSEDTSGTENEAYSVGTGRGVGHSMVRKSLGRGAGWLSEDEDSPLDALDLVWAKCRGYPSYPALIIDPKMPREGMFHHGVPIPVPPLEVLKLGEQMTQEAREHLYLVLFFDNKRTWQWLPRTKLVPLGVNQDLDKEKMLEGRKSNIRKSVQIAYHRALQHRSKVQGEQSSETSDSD
The settings on record: Compound concentration 20.0 uM, Protein concentration 2.0 uM, Result type QC Liability.

Assay [1] addresses Fibroblast growth factor receptor 3 (Homo sapiens) (UniProt P22607). The note with it: Compound concentration 20.0 uM, Protein concentration 2.0 uM, Result type QC Liability.
Description: Thermal Shift Assay. Domain: start/stop: P449-E759

As usually defined, the ΔTm is the change in melting temperature against a reference sample.

Chain of Fibroblast growth factor receptor 3 (Homo sapiens) (P22607 23-806 limits assumed): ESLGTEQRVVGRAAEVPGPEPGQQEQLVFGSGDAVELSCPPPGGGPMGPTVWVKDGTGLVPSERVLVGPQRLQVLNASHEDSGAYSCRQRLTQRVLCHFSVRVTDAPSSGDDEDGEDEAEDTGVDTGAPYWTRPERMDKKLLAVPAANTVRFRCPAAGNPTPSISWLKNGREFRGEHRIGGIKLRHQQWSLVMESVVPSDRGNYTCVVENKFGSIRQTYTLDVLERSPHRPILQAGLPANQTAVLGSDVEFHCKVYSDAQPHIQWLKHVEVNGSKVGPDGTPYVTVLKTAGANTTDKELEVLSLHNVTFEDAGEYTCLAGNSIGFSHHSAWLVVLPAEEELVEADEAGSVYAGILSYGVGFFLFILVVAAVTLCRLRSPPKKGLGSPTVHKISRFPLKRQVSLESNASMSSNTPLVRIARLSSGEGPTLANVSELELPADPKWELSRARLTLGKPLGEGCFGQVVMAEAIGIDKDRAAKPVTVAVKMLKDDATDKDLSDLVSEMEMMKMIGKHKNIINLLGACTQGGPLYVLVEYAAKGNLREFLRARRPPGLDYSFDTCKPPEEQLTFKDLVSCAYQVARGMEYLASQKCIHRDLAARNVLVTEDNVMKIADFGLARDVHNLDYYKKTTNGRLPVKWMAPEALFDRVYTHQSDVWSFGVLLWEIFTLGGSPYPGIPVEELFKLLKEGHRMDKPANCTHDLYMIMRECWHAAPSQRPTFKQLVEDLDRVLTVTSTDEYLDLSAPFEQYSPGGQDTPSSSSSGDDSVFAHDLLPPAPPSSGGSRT

For the compound `COc1cc(C(N)=O)nc(-c2cccc(C#C[C@]3(O)CCN(C)C3=O)c2)c1`, the ΔTm at Peregrin (Homo sapiens) was -1.73 °C; in assay [1] it was 0.48 °C.

Consider `CCCCCCCC/C=C\CCCCCCCC(=O)NCCO`, for which the shift in melting temperature (ΔTm) at Peregrin (Homo sapiens) was -0.91 °C; in assay [1], 1.23 °C.

Turning to `O=C(CNCc1cc2ccccc2[nH]1)N[C@H]1CC[C@@H](c2nc3ccccc3[nH]2)CC1`, the ΔTm at Peregrin (Homo sapiens) came out at 0.07 °C; in assay [1], 0.46 °C.

`CCNc1ccc(-c2nn(-c3ccccc3C)c3c2C(C)Cc2nc(NC(=O)OC)sc2-3)cn1` (centres undefined): the ΔTm is -1.43 °C at Peregrin (Homo sapiens) and 0.96 °C in assay [1].

`O=C(NC[C@@H]1[C@H]2CN(C(=O)OCc3cc(C(F)(F)F)cc(C(F)(F)F)c3)C[C@@H]12)c1ccc2[nH]nnc2c1`: the ΔTm at Peregrin (Homo sapiens) is -0.49 °C; in assay [1] it was 1.51 °C.

Take `CC(=O)c1c(C)c2cnc(Nc3ccc(N4CCN(CCCCNC(=O)COc5cccc6c5C(=O)N(C5CCC(=O)NC5=O)C6=O)CC4)cn3)nc2n(C2CCCC2)c1=O` (centres undefined): the ΔTm at Peregrin (Homo sapiens) was -1.22 °C; in assay [1], 0.48 °C.

In the case of `CNC(=O)c1c(F)cccc1Nc1nc(Nc2cc3c(cc2OC)CCN3C(=O)CN(C)C)nc2[nH]ccc12`, the ΔTm on Peregrin (Homo sapiens) is -2.03 °C; in assay [1], 0.2 °C.

In the case of `CC(C)S(=O)(=O)c1ccccc1Nc1nc(N[C@@H]2CCCN(CCCCCCCNC(=O)COc3cccc4c3C(=O)N(C3CCC(=O)NC3=O)C4=O)C2)ncc1Cl` (some centres undefined), the ΔTm came to 0.63 °C at Peregrin (Homo sapiens) and 7.81 °C in assay [1].

As to `COc1cccc(CNc2ccc(S(=O)(=O)Nc3nc4ccccc4s3)cc2)c1O`, the shift in melting temperature (ΔTm) is -0.69 °C at Peregrin (Homo sapiens) and 1.44 °C in assay [1].

In the case of `COc1cc(-c2cc3ncccc3c(O[C@@H](C)[C@H]3CNC(=O)C3)n2)cc(OC)c1OC`, the ΔTm on Peregrin (Homo sapiens) is -2.76 °C; in assay [1], 0.6 °C.

As for `O=C(Nc1ccc(Cl)c(-c2ccccn2)c1)c1cccc(COc2ccc(Br)cc2CNCCO)c1`, the shift in melting temperature (ΔTm) at Peregrin (Homo sapiens) was -0.98 °C; in assay [1], 0.69 °C.

With `COc1ccc(C(F)(F)F)cc1NC(=O)Nc1ccc(Oc2cc(C)nc(N)n2)c2ccccc12`, the values for the ΔTm (at Peregrin (Homo sapiens); in assay [1]) were 1.59 °C and 2.41 °C, respectively.

As for `CC1CNCCc2c1nc1ccnn1c2N1CC(C(=O)N2CCC(C)(C)C2)C1` (centres undefined), the ΔTm on Peregrin (Homo sapiens) is -1.64 °C; in assay [1], 0.56 °C.

Regarding `NS(=O)(=O)c1ccc(Nc2nc(OCC3CCCCC3)c3nc[nH]c3n2)cc1`, the figures for the ΔTm (at Peregrin (Homo sapiens); in assay [1]) were 1.2 °C and 0.37 °C, respectively.

Turning to `N[C@@H]1CCCN(c2c(/C=C3\SC(=O)NC3=O)cccc2-c2ccccc2)C1`, the results for the ΔTm (on Peregrin (Homo sapiens); in assay [1]) were -2.04 °C and 0.95 °C, respectively.

Take `CC(C)N(CCCCOCC(=O)O)c1cnc(-c2ccccc2)c(-c2ccccc2)n1`: the ΔTm on Peregrin (Homo sapiens) is -4.18 °C; in assay [1], -0.51 °C.

Take `COc1nc2ccc([C@@](O)(c3ccccc3)C3CCN(C(C)=O)CC3)cc2c(Cl)c1Cc1ccc(-n2cccn2)cc1`: the ΔTm on Peregrin (Homo sapiens) is -1.27 °C; in assay [1], 5.87 °C.

As for `CCOC(=O)N1CCC(CN(Cc2ccc(Cl)cc2)Cc2ccc([N+](=O)[O-])s2)C1` (centres undefined), the figures for the ΔTm (at Peregrin (Homo sapiens); in assay [1]) were -2.07 °C and 0.35 °C, respectively.

On to `Cc1cc(-c2cnc(N)c3c(-c4ccc5scnc5c4)csc23)n(C)n1`, for which the ΔTm on Peregrin (Homo sapiens) is -1.57 °C; in assay [1], 0.89 °C.

For `C=CC(=O)Nc1ccc2[nH]c(=O)n(C3CCN(Cc4ccc(-c5ccc6c(c5)NC(=O)CO6)cc4)CC3)c2c1`, the ΔTm at Peregrin (Homo sapiens) is -0.12 °C; in assay [1] it was 0.37 °C.

Regarding `Cc1cc(CN(CC(=O)Nc2ccc(Cl)cc2Cl)C2CCCCC2)ccc1OCC(=O)O`, the results for the ΔTm (on Peregrin (Homo sapiens); in assay [1]) were -6.07 °C and -0.33 °C, respectively.

For `COc1cc(-c2cn[nH]c2)ccc1C(=O)Nc1ccc2c(c1)CCNCC2`, the ΔTm at Peregrin (Homo sapiens) turned out to be 0.1 °C; in assay [1], 0.93 °C.

As to `CCS(=O)(=O)c1ccc(OC)c(Nc2ncc(-c3cccc(F)c3)o2)c1`, the ΔTm on Peregrin (Homo sapiens) was -1.63 °C; in assay [1] it was 3.6 °C.

Take `COc1cc(C)c(S(=O)(=O)N(C)CCOCC(=O)N(C)[C@H]2CCC[C@@H](N3CCN(C)CC3)C2)c(C)c1`: the values for the ΔTm (on Peregrin (Homo sapiens); in assay [1]) were -2.36 °C and 0.64 °C, respectively.

On to `COC[C@@H](C)N[C@H]1CC[C@H](Nc2cc(-c3cccc(NCC4(C#N)CCOCC4)n3)c(Cl)cn2)CC1`, for which the ΔTm at Peregrin (Homo sapiens) is -1.02 °C; in assay [1], 0.39 °C.

Consider `CC1CCN(C(=O)[C@H](CCn2cccc2C#N)NS(=O)(=O)c2cccc3[nH]ccc23)CC1`, for which the figures for the ΔTm (on Peregrin (Homo sapiens); in assay [1]) were -2.12 °C and 0.35 °C, respectively.

Turning to `CN(C1CCc2c(c3ccccc3n2CC(=O)O)C1)S(=O)(=O)c1ccc(F)cc1` (centres undefined), the ΔTm is -2.54 °C on Peregrin (Homo sapiens) and 0.46 °C in assay [1].

In the case of `NC(=O)c1ccc(-c2nc(-c3ccc4c(c3)OCCO4)c(-c3ccccn3)[nH]2)cc1`, the ΔTm turned out to be 0.84 °C at Peregrin (Homo sapiens) and 1.37 °C in assay [1].

With `CC1(C)CCN(C(=O)C2CN(c3c4c(nc5ccnn35)CCNCC4)C2)C1`, the values for the ΔTm (on Peregrin (Homo sapiens); in assay [1]) were -2.26 °C and 0.72 °C, respectively.

Regarding `COc1ccccc1[C@@H]1CNCCC12CCN(C(=O)[C@](OC)(c1ccccc1)C(F)(F)F)CC2`, the ΔTm is -1.57 °C on Peregrin (Homo sapiens) and 0.45 °C in assay [1].

In the case of `Cc1sc(C(=O)c2cncnc2N[C@@H]2C[C@H](COS(N)(=O)=O)[C@@H](O)C2)cc1[C@@H]1NCCc2ccc(Cl)cc21`, the ΔTm at Peregrin (Homo sapiens) is -2.76 °C; in assay [1] it was 0.36 °C.

With `CN(C)c1ccc(-c2cc3ncccc3c(OCCCCO)n2)cc1`, the ΔTm at Peregrin (Homo sapiens) was -2.48 °C; in assay [1] it was 3.37 °C.

Regarding `Cn1ncc(-c2nc(N[C@H]3CC[C@H](N)CC3)ncc2Cl)c1CC1CC1`, the ΔTm was -1.56 °C on Peregrin (Homo sapiens) and 1.76 °C in assay [1].

In the case of `CCCCNc1ncc2c(-c3ccc(CN4CCN(C)CC4)cc3)cn([C@H]3CC[C@H](O)CC3)c2n1`, the ΔTm is -3.2 °C on Peregrin (Homo sapiens) and 7.9 °C in assay [1].

As to `CC(C)(O)CNC(=O)N1C(=O)N(c2cccc(C(F)(F)F)c2)C2=C(C(=O)CC2)[C@H]1c1ccc(C#N)cc1`, the ΔTm was -1.94 °C on Peregrin (Homo sapiens) and 0.72 °C in assay [1].

As to `COCCN(C)c1ccc(NC(=O)/C=C(\C)c2ccc3ccccc3c2)c(C(=O)O)c1`, the ΔTm on Peregrin (Homo sapiens) is -1.83 °C; in assay [1], 1.15 °C.

In the case of `CCCc1c(OCCCOc2ccc(OCC(=O)O)cc2)ccc(C(C)=O)c1O`, the ΔTm at Peregrin (Homo sapiens) was -1.78 °C; in assay [1], 0.12 °C.

Consider `CCn1c(=O)c2c(C)c(C(=O)N3CCC(O)CC3)sc2n(CCC(F)(F)F)c1=O`, for which the results for the shift in melting temperature (ΔTm) (at Peregrin (Homo sapiens); in assay [1]) were -1.95 °C and 0.45 °C, respectively.

Regarding `N#Cc1cccc(-c2c[nH]c3ncnc(N4CCOCC4)c23)c1`, the ΔTm on Peregrin (Homo sapiens) is -1.1 °C; in assay [1] it was 2.14 °C.

As for `O[C@]1(C(F)(F)F)CCCC[C@H]1Nc1ccc(F)cc1`, the ΔTm on Peregrin (Homo sapiens) turned out to be 0.24 °C; in assay [1], 0.58 °C.

In the case of `Oc1c(-c2cccnc2)cnn1-c1ccccn1`, the results for the ΔTm (on Peregrin (Homo sapiens); in assay [1]) were -1.78 °C and 0.56 °C, respectively.

On to `O=C(NCCN1CCOCC1)c1ccc2nn(CCOc3ccc(Cl)cc3)cc2c1`, for which the ΔTm is -2.21 °C on Peregrin (Homo sapiens) and 1.58 °C in assay [1].

For the compound `CCc1ccc(-c2ncn(CC3(F)CCN(C)CC3)c2-c2ccnc3[nH]ccc23)nc1`, the ΔTm is -1.47 °C at Peregrin (Homo sapiens) and 0.58 °C in assay [1].

As for `NCCCc1c(C(=O)O)[nH]c2ccc(C(=O)Nc3ccccc3)cc12`, the ΔTm at Peregrin (Homo sapiens) is -1.68 °C; in assay [1] it was 0.79 °C.

Take `Cc1cc(CN)cc(C)c1-c1ncn(C)c1-c1ccnc2cc(F)ccc12`: the ΔTm was -2.14 °C at Peregrin (Homo sapiens) and 0.85 °C in assay [1].

As to `CC(C)C(=O)N1CCC(c2cn(C)c3ncc(NC(=O)c4cccc(C#N)c4)c(C(F)(F)F)c23)CC1`, the figures for the ΔTm (at Peregrin (Homo sapiens); in assay [1]) were 0.27 °C and 0.79 °C, respectively.

As for `CN1CCN(c2ccc(/C=C(\C#N)c3ccccc3Br)cc2)CC1`, the ΔTm is -2.48 °C on Peregrin (Homo sapiens) and 1.23 °C in assay [1].

As for `COc1cc2ncnc(Nc3ccc(F)c(Cl)c3)c2cc1OCCN(C)C[C@H](C)O`, the values for the ΔTm (on Peregrin (Homo sapiens); in assay [1]) were -1.85 °C and 1.03 °C, respectively.

As for `C[C@@H](CN1CC[C@@]2(C)c3cccc(O)c3C[C@@H]1C2(C)C)OCc1ccccc1`, the figures for the ΔTm (at Peregrin (Homo sapiens); in assay [1]) were -1.96 °C and 1.19 °C, respectively.

Take `CSc1ccc(C(=O)/C=C/c2cc(C)c(OC(C)(C)C(=O)O)c(C)c2)cc1`: the ΔTm on Peregrin (Homo sapiens) was -1.39 °C; in assay [1], 1.12 °C.

On to `CCN(C)S(=O)(=O)Nc1cccc(-c2ccc3c(NC(=O)C4CC4)n[nH]c3c2)c1`, for which the ΔTm on Peregrin (Homo sapiens) was -0.56 °C; in assay [1], 2.38 °C.

`Cc1cc(CN)cc(C)c1-c1ncn(C)c1-c1cncn1C`: the ΔTm was -1.81 °C at Peregrin (Homo sapiens) and 0.44 °C in assay [1].
